The results in this text go back to PubChem BioAssay AID1259407 (Chemical Carcinogenesis Research Information System (CCRIS), 2018).

The series deals with CCRIS mutagenicity, Ames/micronucleus/aberration tests. As to the kind of experiment: CCRIS mutagenicity studies.
[1] abbreviates: Test System: AMES SALMONELLA TYPHIMURIUM, Strain/Indicator: TA98, Metabolic Activation: NONE, Method: STANDARD PLATE.
The mark [2] stands for this setting: Test System: AMES SALMONELLA TYPHIMURIUM, Strain/Indicator: TA100, Metabolic Activation: NONE, Method: STANDARD PLATE.
The mark [3] stands for this setting: Test System: AMES SALMONELLA TYPHIMURIUM, Strain/Indicator: TA98, Metabolic Activation: NONE, Method: PREINCUBATION
Setting [4] is: Test System: AMES SALMONELLA TYPHIMURIUM, Strain/Indicator: TA98, Metabolic Activation: RAT, LIVER, S-9, AROCLOR 1254, Method: PREINCUBATION

Each structure is given as a SMILES string. Calls of active or inactive are those of the source. How the calls were made is not given here.

For the compound `CCBr`, the mutagenic call (End Point: IN VITRO CHROMOSOMAL ABERRATIONS, Test System: CHO CELLS, Metabolic Activation: NONE) is “inactive; negative”; the mutagenic call (End Point: IN VITRO CHROMOSOMAL ABERRATIONS, Test System: CHO CELLS, Metabolic Activation: RAT, LIVER, S-9, AROCLOR 1254) is “inactive; negative”; the mutagenic call (End Point: In vitro Micronucleus, Test System: Chinese Hamster Ovary (CHO-WBL) cells, Metabolic Activation: None) is “inactive; negative”; the mutagenic call (Test System: AMES SALMONELLA TYPHIMURIUM, Strain/Indicator: TA97, Metabolic Activation: NONE, Method: STANDARD PLATE) is “active; positive”; the mutagenic call (Test System: AMES SALMONELLA TYPHIMURIUM, Strain/Indicator: TA97, Metabolic Activation: RAT, LIVER, S-9, AROCLOR 1254, Method: STANDARD PLATE) was “active; positive”; the mutagenic call (Test System: AMES SALMONELLA TYPHIMURIUM, Strain/Indicator: TA98, Metabolic Activation: HAMSTER, LIVER, S-9, AROCLOR 1254, Method: DESICCATOR) was “inactive; negative”. In addition, the mutagenic call was “inactive; negative” (Test System: AMES SALMONELLA TYPHIMURIUM, Strain/Indicator: TA98, Metabolic Activation: NONE, Method: DESICCATOR); “inactive; negative” under setting [1]; “inactive; negative” (Test System: AMES SALMONELLA TYPHIMURIUM, Strain/Indicator: TA98, Metabolic Activation: RAT, LIVER, S-9, AROCLOR 1254, Method: DESICCATOR); “active; positive” (Test System: AMES SALMONELLA TYPHIMURIUM, Strain/Indicator: TA98, Metabolic Activation: RAT, LIVER, S-9, AROCLOR 1254, Method: STANDARD PLATE); “active; positive” (Test System: AMES SALMONELLA TYPHIMURIUM, Strain/Indicator: TA100, Metabolic Activation: HAMSTER, LIVER, S-9, AROCLOR 1254, Method: DESICCATOR); “active; positive” (Test System: AMES SALMONELLA TYPHIMURIUM, Strain/Indicator: TA100, Metabolic Activation: NONE, Method: DESICCATOR). Besides, the mutagenic call under setting [2] was “inactive; negative”; the mutagenic call (Test System: AMES SALMONELLA TYPHIMURIUM, Strain/Indicator: TA100, Metabolic Activation: RAT, LIVER, S-9, AROCLOR 1254, Method: DESICCATOR) was “active; positive”; the mutagenic call (Test System: AMES SALMONELLA TYPHIMURIUM, Strain/Indicator: TA100, Metabolic Activation: RAT, LIVER, S-9, AROCLOR 1254, Method: STANDARD PLATE) is “active; positive”; the mutagenic call (Test System: AMES SALMONELLA TYPHIMURIUM, Strain/Indicator: TA104, Metabolic Activation: NONE, Method: STANDARD PLATE) was “inactive; negative”; the mutagenic call (Test System: AMES SALMONELLA TYPHIMURIUM, Strain/Indicator: TA104, Metabolic Activation: RAT, LIVER, S-9, AROCLOR 1254, Method: STANDARD PLATE) is “active; positive”.
Turning to `C[C@H](CCC(=O)O)[C@H]1CC[C@H]2[C@@H]3CC[C@@H]4C[C@H](O)CC[C@]4(C)[C@H]3CC(=O)[C@]12C`, the mutagenic call is “inactive; negative” (Test System: AMES SALMONELLA TYPHIMURIUM, Strain/Indicator: TA98, Metabolic Activation: NONE, Method: FLUCTUATION TEST); “inactive; negative” under setting [3]; “inactive; negative” (Test System: AMES SALMONELLA TYPHIMURIUM, Strain/Indicator: TA98, Metabolic Activation: RAT, LIVER, S-9, PCB, Method: PREINCUBATION); “inactive; negative” (Test System: AMES SALMONELLA TYPHIMURIUM, Strain/Indicator: TA100, Metabolic Activation: NONE, Method: FLUCTUATION TEST).
For `N#Cc1cccc(/C=C\c2ccc([N+](=O)[O-])cc2)c1`, the mutagenic call was “active; positive” (Test System: AMES SALMONELLA TYPHIMURIUM, Strain/Indicator: TA98(NR), Metabolic Activation: NONE, Method: STANDARD PLATE); “active; positive” (Test System: AMES SALMONELLA TYPHIMURIUM, Strain/Indicator: TA98 (NR), Metabolic Activation: S-9, Method: STANDARD PLATE); “active; positive” under setting [1]; “active; positive” (Test System: AMES SALMONELLA TYPHIMURIUM, Strain/Indicator: TA98, Metabolic Activation: S-9, Method: STANDARD PLATE); “inactive; negative” (Test System: AMES SALMONELLA TYPHIMURIUM, Strain/Indicator: TA100 (NR), Metabolic Activation: NONE, Method: STANDARD PLATE); “inactive; negative” (Test System: AMES SALMONELLA TYPHIMURIUM, Strain/Indicator: TA100 (NR), Metabolic Activation: S-9, Method: STANDARD PLATE). The mutagenic call was “active; positive” under setting [2] and “active; positive” (Test System: AMES SALMONELLA TYPHIMURIUM, Strain/Indicator: TA100, Metabolic Activation: S-9, Method: STANDARD PLATE).
Regarding `CC(=O)Nc1ccc(Nc2ccc([N+](=O)[O-])cc2)cc1`, the mutagenic call is, setting by setting: (Test System: AMES SALMONELLA TYPHIMURIUM, Strain/Indicator: TA98(NR), Metabolic Activation: NONE, Method: PREINCUBATION) “inactive; negative”; under setting [3], “active; positive”; under setting [4], “active; positive”.
On to `C/C=C(\C)C(=O)O[C@H]1C[C@@H](OC(C)=O)[C@@]2(C(=O)OC)CO[C@H]3[C@@H](O)[C@@](C)([C@]45O[C@@]4(C)[C@H]4C[C@@H]5O[C@@H]5OC=C[C@@]54O)[C@H]4[C@]1(CO[C@]4(O)C(=O)OC)[C@@H]32`, for which the mutagenic call runs as follows: (End Point: IN VIVO CHROMOSOMAL ABERRATIONS, Test System: BONE MARROW, Species: MOUSE, Strain/Sex: SWR/J/MALE,FEMALE, Route: ORAL (GAVAGE)) “inactive; negative”; (End Point: In vivo chromosomal aberrations, Test System: Bone marrow cells, Species: Mouse, Strain/Sex: Swiss/Male, Route: Oral) “active; positive (structural changes)”.
As for `CCC(C)C=O` (centres undefined), the mutagenic call under setting [3] was “inactive; negative”; the mutagenic call under setting [4] was “inactive; negative”; the mutagenic call (Test System: AMES SALMONELLA TYPHIMURIUM, Strain/Indicator: TA100, Metabolic Activation: NONE, Method: PREINCUBATION) was “inactive; negative”; the mutagenic call (Test System: AMES SALMONELLA TYPHIMURIUM, Strain/Indicator: TA100, Metabolic Activation: RAT, LIVER, S-9, AROCLOR 1254, Method: PREINCUBATION) was “inactive; negative”; the mutagenic call (Test System: AMES SALMONELLA TYPHIMURIUM, Strain/Indicator: TA102, Metabolic Activation: NONE, Method: PREINCUBATION) is “inactive; negative”; the mutagenic call (Test System: AMES SALMONELLA TYPHIMURIUM, Strain/Indicator: TA102, Metabolic Activation: RAT, LIVER, S-9, AROCLOR 1254, Method: PREINCUBATION) is “inactive; negative”.
For `O=C1C2(Cl)C3(Cl)C4(Cl)C(Cl)(Cl)C5(Cl)C3(Cl)C1(Cl)C5(Cl)C24Cl` (centres undefined), the mutagenic call reads like this: (End Point: IN VITRO CHROMOSOMAL ABERRATIONS, Test System: CHINESE HAMSTER OVARY CELLS, Metabolic Activation: NONE) “inactive; negative”; (End Point: IN VITRO CHROMOSOMAL ABERRATIONS, Test System: CHINESE HAMSTER OVARY CELLS, Metabolic Activation: RAT, LIVER, S-9, AROCLOR 1254) “inactive; negative”.
As for `O=[N+]([O-])c1cccc2ccccc12`, the mutagenic call under setting [1] was “active; positive”; the mutagenic call (Test System: E. COLI, Strain/Indicator: WP2 UVRA, Metabolic Activation: HAMSTER, LIVER, S-9, AROCLOR 1254, Method: STANDARD PLATE) was “inactive; negative”; the mutagenic call (Test System: E. COLI, Strain/Indicator: WP2 UVRA, Metabolic Activation: MOUSE, LIVER, S-9, AROCLOR 1254, Method: STANDARD PLATE) was “inactive; negative”; the mutagenic call (Test System: E. COLI, Strain/Indicator: WP2 UVRA, Metabolic Activation: MOUSE, LIVER, S-9, Method: STANDARD PLATE) is “inactive; negative”; the mutagenic call (Test System: E. COLI, Strain/Indicator: WP2 UVRA, Metabolic Activation: NONE, Method: STANDARD PLATE) was “inactive; negative”; the mutagenic call (Test System: E. COLI, Strain/Indicator: WP2 UVRA, Metabolic Activation: RAT, LIVER, S-9, AROCLOR 1254, Method: STANDARD PLATE) is “inactive; negative”. Also, where the note is “Test System: E. COLI, Strain/Indicator: WP2 UVRA, Metabolic Activation: RAT, LIVER, S-9, Method: STANDARD PLATE”, the mutagenic call is “inactive; negative”.
